Bridge positions count the residues as written; N and C are the ends. Square brackets hold non-standard residues; d marks the D form. Peptide text beside a SMILES is read from it. I, II: the chains in the order shown. * marks the point of attachment. Palmitoyl = CCCCCCCCCCCCCCCC(=O)*; PEG3 = NCCOCCOCCOCCC(=O)O; Dap = NC[C@H](N)C(=O)O
What was measured:
Format in all cases: in vivo
[1] = system: rat PTMG model using anti-acetylcholine receptor monoclonal antibody (mAb35); experiment: Movement score in rat PTMG model
Protocol: (§1) 5-week-old female rats (n=20, LEW/CrlCrlj, 4 weeks old when carried in, Jackson Laboratory Japan) were divided into four groups (Group A, Group B, Group C, and Group D) using body weight measurement results as indexes. Vehicle was administered to Group A, and the test compound MuSK7-pal dissolved in vehicle was administered intravenously to each of Group B (3 mg/kg), Group C (2 mg/kg), and Group D (1 mg/kg) (Day 0). Two hours after intravenous administration, an anti-nicotinic acetylcholine receptor monoclonal antibody (mAb35, National Hospital Organization Nagasaki Kawatana Medical Center) dissolved in PBS (pH 7.4) as a drug for inducing the pathology of myasthenia gravis was administered intraperitoneally to all animals at 200 µg/rat (Day 0). The vehicle, which was a solvent of the compound, was phosphate-buffered saline (PBS) at pH 7.4 containing 20% hydroxypropyl-β-cyclodextrin and 0.02% polysorbate 80 (the same applies to Example 3(2)).
The movement of the animals was evaluated at each time point of 9, 24, 33, 48, 57, and 72 hours (hr) after antibody administration according to six-level evaluation criteria (Score). The evaluation criteria were as follows. • 0: Normal • 1: Reduced grip strength in forelimbs and hindlimbs • 2: Incomplete paralysis of hindlimbs • 3: Complete paralysis of hindlimbs and inability to stand • 4: Moribund • 5: Death
The average score of the rats in each group was calculated. In addition, in a cage in which a rat determined to have a score of 2 or higher was present, crushed transport agar (manufactured by Oriental Yeast Co., Ltd.) and pellet feed were provided.
as §1, with “(n=24,” for “(n=20,”, “(0.5” for “(3”, “(0.25” for “(2”, “(0.1” for “(1”, “0).” for “0). The vehicle, which was a solvent of the compound, was phosphate-buffered saline (PBS) at pH 7.4 containing 20% hydroxypropyl-β-cyclodextrin and 0.02% polysorbate 80 (the same applies to Example 3(2)).”
The movement of the animals was evaluated at each time point of 9, 24, 33, 48, 57, and 72 hours (hr) after antibody administration according to six-level evaluation criteria (Score). The evaluation criteria were the same as those in (1) B above.
(§2) 5-week-old female rats (LEW/CrlCrlj, 4 weeks old when carried in, Jackson Laboratory Japan) were divided into three groups (Group A, Group B, and Group C) using body weight measurement results as indexes. The test compound (tetramer of Ub012 (EAAAK)3) dissolved in vehicle was administered intravenously to Group A (5 mg/kg) (n=5), the test compound (tetramer of Ub012(ΔGG) (EAAAK)3) dissolved in vehicle was administered intravenously to Group B (5 mg/kg) (n=5), and vehicle was administered intravenously to Group C (n=5), respectively (Day 0). Two hours after intravenous administration, an anti-nicotinic acetylcholine receptor monoclonal antibody (mAb35, National Hospital Organization Nagasaki Kawatana Medical Center) dissolved in PBS (pH 7.4) as a drug for inducing the pathology of myasthenia gravis was administered intraperitoneally to all animals at 200 µg/rat (Day 0).
The movement of the animals was evaluated at each time point of 9, 24, 33, 48, 57, and 72 hours (hr) after antibody administration according to six-level evaluation criteria (Score). The evaluation criteria were the same as those in Example 3(1) B.

[2] = system: rat PTMG model using anti-acetylcholine receptor monoclonal antibody (mAb35); experiment: Body weight change in rat PTMG model (myasthenia gravis model animals); conditions: 0 to 72 hr
Protocol: as §1
Next, the body weight of the animals was measured before antibody administration (pre) and at 0, 9, 24, 33, 48, 57, and 72 hours (hr) after antibody administration. The movement, muscle strength, and grip strength of the animals were evaluated by the following tests.
(§3) 5-week-old female rats (n=24, LEW/CrlCrlj, 4 weeks old when carried in, Jackson Laboratory Japan) were divided into four groups (Group A, Group B, Group C, and Group D) using body weight measurement results as indexes. Vehicle was administered to Group A, and the test compound MuSK7-pal dissolved in vehicle was administered intravenously to each of Group B (0.5 mg/kg), Group C (0.25 mg/kg), and Group D (0.1 mg/kg) (Day 0). Two hours after intravenous administration, an anti-nicotinic acetylcholine receptor monoclonal antibody (mAb35, National Hospital Organization Nagasaki Kawatana Medical Center) dissolved in PBS (pH 7.4) as a drug for inducing the pathology of myasthenia gravis was administered intraperitoneally to all animals at 200 µg/rat (Day 0).
as §2

[3] = system: rat PTMG model; experiment: Rat PTMG myasthenia gravis model induced by anti-acetylcholine receptor monoclonal antibody (mAb35); conditions: 0-72 hr after antibody
Protocol: as §1
Next, the body weight of the animals was measured before antibody administration (pre) and at 0, 9, 24, 33, 48, 57, and 72 hours (hr) after antibody administration. The movement, muscle strength, and grip strength of the animals were evaluated by the following tests. […]
as §3
The movement of the animals was evaluated at each time point of 9, 24, 33, 48, 57, and 72 hours (hr) after antibody administration according to six-level evaluation criteria (Score). The evaluation criteria were the same as those in (1) B above. […]

With CCCCCCCCCCCCCCCC(=O)NCCCC[C@H](NC(=O)[C@H](CNC(=O)CCOCCOCCOCCNC(=O)CNC(=O)[C@@H]1CSCC(=O)N[C@H](Cc2ccc(O)cc2)C(=O)N2CCC[C@H]2C(=O)N[C@@H](CO)C(=O)N[C@@H](Cc2ccc(O)cc2)C(=O)N[C@@H](Cc2c[nH]cn2)C(=O)N[C@@H]([C@@H](C)O)C(=O)N[C@@H](CC(N)=O)C(=O)N[C@@H](C(C)C)C(=O)N[C@@H](C(C)C)C(=O)N[C@@H](C)C(=O)N[C@@H](CO)C(=O)N[C@@H](CC(C)C)C(=O)N[C@@H](CCCCN)C(=O)N[C@@H](CCCNC(=N)N)C(=O)N1)NC(=O)CCOCCOCCOCCNC(=O)CNC(=O)[C@@H]1CSCC(=O)N[C@H](Cc2ccc(O)cc2)C(=O)N2CCC[C@H]2C(=O)N[C@@H](CO)C(=O)N[C@@H](Cc2ccc(O)cc2)C(=O)N[C@@H](Cc2c[nH]cn2)C(=O)N[C@@H]([C@@H](C)O)C(=O)N[C@@H](CC(N)=O)C(=O)N[C@@H](C(C)C)C(=O)N[C@@H](C(C)C)C(=O)N[C@@H](C)C(=O)N[C@@H](CO)C(=O)N[C@@H](CC(C)C)C(=O)N[C@@H](CCCCN)C(=O)N[C@@H](CCCNC(=N)N)C(=O)N1)C(N)=O [MuSK7-pal] (I: {CH2CO}-[dY]PSYHTNVVASLKRCG[PEG3][Dap]K(Palmitoyl)-NH2 / II: {CH2CO}-[dY]PSYHTNVVASLKRCG[PEG3]; amide I:18-II:C; thioether I:N-I:15, II:N-II:15) the movement score ([1]; 0.1 mg/kg intravenously (Group D, Example 3(2)), not significant vs Group A) was “the scores remained low compared to the control group”, the movement score ([1]; 0.25 mg/kg intravenously (Group C, Example 3(2)), Dunn's test) was “significantly lower than those in Group A at all measurement points except at 9 hr and at 57 hr” and the movement score ([1]; 0.5 mg/kg intravenously (Group B, Example 3(2)), Dunn's test) was “significantly lower than those in Group A at all measurement points after 24 hr”. For the same compound, the movement score ([1]; 1 mg/kg intravenously (Group D, Example 3(1)), all individuals, all measurement points, score 0-5) was 0, the movement score ([1]; 2 mg/kg intravenously (Group C, Example 3(1)), 9 to 72 hr, score 0-5) was “the scores remained low at all measurement points” and the movement score ([1]; 3 mg/kg intravenously (Group B, Example 3(1)), 9 to 72 hr, score 0-5) was “the scores remained low at all measurement points”. For the same compound, the body weight ([2]; 0.1 mg/kg intravenously 2 h before mAb35 (Group D, Example 3(2))) was “milder than that in Group A”, the body weight ([2]; 0.25 mg/kg intravenously 2 h before mAb35 (Group C, Example 3(2))) was “milder than that in Group A” and the body weight ([2]; 0.5 mg/kg intravenously 2 h before mAb35 (Group B, Example 3(2))) was “milder than that in Group A”. For the same compound, the body weight ([2]; 1 mg/kg intravenously 2 h before mAb35 (Group D, Example 3(1))) was “almost no significant decrease in body weight”, the body weight ([2]; 2 mg/kg intravenously 2 h before mAb35 (Group C, Example 3(1))) was “milder than that in Group A” and the body weight ([2]; 3 mg/kg intravenously 2 h before mAb35 (Group B, Example 3(1))) was “milder than that in Group A”. The body weight change ([3]; 0.1 mg/kg intravenous (Group D, low-dose study)) was “the degree of decrease in body weight was milder than that in Group A”, the body weight change ([3]; 0.25 mg/kg intravenous (Group C, low-dose study)) was “the degree of decrease in body weight was milder than that in Group A” and the body weight change ([3]; 0.5 mg/kg intravenous (Group B, low-dose study)) was “the degree of decrease in body weight was milder than that in Group A”. The body weight change ([3]; 2 mg/kg intravenous (Group C, high-dose study)) was “the degree of decrease in body weight was milder than that in Group A” and the body weight change ([3]; 3 mg/kg intravenous (Group B, high-dose study)) was “the degree of decrease in body weight was milder than that in Group A”.

— patent EP4722228A1, “NEW COMPOUND TARGETING MUSK AND USE THEREOF” (The University of Tokyo, priority 2023, dated 2024)
